From patent US6492369B2, “Therapeutic agents for drug dependence” (Santen Pharmaceutical Co., Ltd., priority 1998, dated 2002)
Where a name gives a salt, the structure may show the parent alone.

Key:
Male Sprague-Dawley rats [1] = test: Conditioned place preference test (CPP method): potential of test compound and addicting drugs to induce psychological dependence; type: in vivo, rat
Source text: Effects of 1,4-(diphenylalkyl)piperazine derivatives on the potency of induction of psychological dependence by addicting drugs were studied by using the conditioned place preference test (CPP method) according to the report of Suzuki et al. (Life Science, 57, 1277-1284 (1995)).
Test of Potential to Induce Psychological Dependence of Test Compound and Addicting Drugs
Male Sprague-Dawley rats, body weight: about 250 g, 5.5 weeks old, were used in groups of eight.
An apparatus was used wherein a rectangular parallelepiped box was divided into two compartments at the center in length by a sliding partition and one compartment was made white, while the other compartment was made black.
A test compound and addicting drugs to be used were dissolved in physiological saline.
The solutions of the test compound (0.3 mg/ml, 1 mg/ml and 3 mg/ml solutions) were administered subcutaneously to the rats (1 ml/kg) The solutions of the addicting drugs were administered subcutaneously to morphine administration groups (2 mg/ml, 4 mg/ml and 8 mg/ml solutions of morphine hydrochloride) and intraperitonealy to cocaine administration groups (2 mg/ml, 4 mg/ml and 8 mg/ml solutions of cocaine hydrochloride) and to methamphetamine administration groups (1 mg/ml, 2 mg/ml and 4 mg/ml) (1 ml/kg respectively). Physiological saline was administered by the same method as the method of administration of each administration group (1 ml/kg respectively).
The rats were placed in the box from which the partition had been removed. Each cumulative time the rats had spent in the white compartment and the black compartment respectively was measured for 15 minutes, and the spent time in the compartment where the rats had spent a longer time (pre-value) was determined from a difference between them. This operation was carried out once a day for three days.
The box was divided into two compartments by the partition. The solution of the addicting drug or the solution of the test compound was administered subcutaneously to the rats. The rats were confined for 50 minutes to the compartment in which the rats had spent a shorter time in pre-conditioning. The next day, physiological saline was administered subcutaneously to the rats and, next, the rats were confined for 50 minutes to the compartment in which the rats had spent a longer time. This training was repeated three times (2×3 days).
The partition was removed from the box, and the conditioned rats were placed in the box. Each cumulative time the rats spent in the white compartment and the black compartment respectively was measured for 15 minutes, and the spent time in the compartment where the rats had spent a longer time (post value) was determined from a difference between them.
The cumulative time the rats had spent in the respective compartments was measured by using an infrared sensor.
The potential to induce psychological dependence was evaluated by using CPP scores (sec.) showing a motivational effect of the conditioning drug as an index.
The motivational effects of the addicting drugs and the test compound, which were the conditioning drugs, were determined by the following equation.
CPP score (sec.)=post value (sec.)−pre value (sec.)

Male Sprague-Dawley rats [2] = test: Conditioned place preference test (CPP method): effect of test compound on potential of addicting drugs to induce psychological dependence; type: in vivo, rat; conditions: for Inhibition rate (%) of CPP score: average of eight
Source text: (Life Science, 57, 1277-1284 (1995)). Effect of Test Compound on Potential of Addicting Drugs to Induce Psychological Dependence Male Sprague-Dawley rats, body weight: about 250 g, 5.5 weeks old, were used in groups of eight. An apparatus was used wherein a rectangular parallelepiped box was divided into two compartments at the center in length by a sliding partition and one compartment was made white, while the other compartment was made black. A test compound and addicting drugs to be used were dissolved in physiological saline. The solutions of the test compound (1 mg/ml and 3 mg/ml) were administered subcutaneously to the rats (1 ml/kg). […] The rats were placed in the box from which the partition had been removed. Each cumulative time the rats had spent in the white compartment and the black compartment respectively was measured for 15 minutes, and the spent time in the compartment where the rats had spent a longer time (pre value) was determined from a difference between them. This operation was carried out once a day for three days. The box was divided into two compartments by the partition. The solution of the test compound was administered to the rats, and 30 minutes later, the solution of the addicting drug was further administered to the rats. The rats were confined for 50 minutes to the compartment in which the rats had spent a shorter time in pre-conditioning. The next day, only physiological saline was administered to the rats, and next the rats were confined for 50 minutes to the compartment in which the rats had spent a longer time. This training was repeated three times (2×3 days). The partition was removed from the box, and the conditioned rats were placed in the box. Each cumulative time the rats had spent in the white compartment and the black compartment respectively was measured for 15 minutes, and the spent time in the compartment where the rats had spent a longer time (post value) was determined from a difference between them. The cumulative time the rats had spent in the respective compartments was measured by using an infrared sensor. The potential of the addicting drugs to induce psychological dependence was evaluated by using CPP scores (sec.) showing a motivational effect of the conditioning drug as an index. CPP score (sec.)=post value (sec.)−pre value (sec.) The effects of the test compound on the potential of the addicting drugs to induce psychological dependence was determined by the following equation as inhibition rates (%). Inhibition rate (%)=[(A−B)/A]×100 A: CPP score (sec.) of physiological saline administration group B: CPP score (sec.) of test compound administration group

[3] = 2 mg/kg (morphine s.c., cocaine i.p.), average of eight
[4] = 4 mg/kg (morphine s.c., cocaine i.p.), average of eight
[5] = 8 mg/kg (morphine s.c., cocaine i.p.), average of eight

`CN1CC[C@]23c4c5ccc(O)c4O[C@H]2[C@@H](O)C=C[C@H]3[C@H]1C5.Cl` [Morphine, morphine hydrochloride] was tested, and the “CPP score” value (Male Sprague-Dawley rats [1]; [3]) was 171 s, the “CPP score” value (Male Sprague-Dawley rats [1]; [4]) was 187 s and the “CPP score” value (Male Sprague-Dawley rats [1]; [5]) was 228 s. The “Potential to induce psychological dependence (motivational effect, in words)” value (Male Sprague-Dawley rats [1]; all doses tested) was “appetitive effects”.
In the case of `COC(=O)[C@H]1[C@@H](OC(=O)c2ccccc2)C[C@@H]2CC[C@H]1N2C.Cl` [Cocaine, cocaine hydrochloride], the “CPP score” value (Male Sprague-Dawley rats [1]; [3]) is reported as 141 s, the “CPP score” value (Male Sprague-Dawley rats [1]; [4]) is reported as 178 s and the “CPP score” value (Male Sprague-Dawley rats [1]; [5]) is reported as 259 s. The “Potential to induce psychological dependence (motivational effect, in words)” value (Male Sprague-Dawley rats [1]; all doses tested) was “appetitive effects”.
In the case of `CN[C@@H](C)Cc1ccccc1.Cl` [Methamphetamine, methamphetamine hydrochloride], the “Potential to induce psychological dependence (motivational effect, in words)” value (Male Sprague-Dawley rats [1]; all doses tested) is reported as “appetitive effects”, the “CPP score” value (Male Sprague-Dawley rats [1]; methamphetamine 1 mg/kg i.p., average of eight) is reported as 155 s and the “CPP score” value (Male Sprague-Dawley rats [1]; methamphetamine 2 mg/kg i.p., average of eight) is reported as 224 s. The “CPP score” value (Male Sprague-Dawley rats [1]; methamphetamine 4 mg/kg i.p., average of eight) was 151 s.
With `COc1ccc(CCN2CCN(CCCc3ccccc3)CC2)cc1OC` [Compound A, 1-[2-(3,4-dimethoxyphenyl)ethyl]-4-(3-phenylpropyl)piperazine dihydrochloride] the “Inhibition rate (%) of CPP score” value (Male Sprague-Dawley rats [2]; Cocaine administration group (cocaine hydrochloride 4 mg/kg i.p.), Compound A 1 mg/kg s.c. 30 min before) was 26%, the “Inhibition rate (%) of CPP score” value (Male Sprague-Dawley rats [2]; Cocaine administration group (cocaine hydrochloride 4 mg/kg i.p.), Compound A 3 mg/kg s.c. 30 min before) was 55% and the “Inhibition rate (%) of CPP score” value (Male Sprague-Dawley rats [2]; Methamphetamine administration group (methamphetamine hydrochloride 2 mg/kg i.p.), Compound A 1 mg/kg s.c. 30 min before) was 55%. For the same molecule, the “Inhibition rate (%) of CPP score” value (Male Sprague-Dawley rats [2]; Methamphetamine administration group (methamphetamine hydrochloride 2 mg/kg i.p.), Compound A 3 mg/kg s.c. 30 min before) was 57%, the “Inhibition rate (%) of CPP score” value (Male Sprague-Dawley rats [2]; Morphine administration group (morphine hydrochloride 8 mg/kg s.c.), Compound A 1 mg/kg s.c. 30 min before) was 38% and the “Inhibition rate (%) of CPP score” value (Male Sprague-Dawley rats [2]; Morphine administration group (morphine hydrochloride 8 mg/kg s.c.), Compound A 3 mg/kg s.c. 30 min before) was 50%. The “Effect on potential of addicting drugs to induce psychological dependence (in words)” value (Male Sprague-Dawley rats [2]; morphine, cocaine and methamphetamine administration groups, 1 and 3 mg/kg) was “apparently inhibited the potential of the addicting drugs to induce psychological dependence”, the “CPP score” value (Male Sprague-Dawley rats [1]; male, Sprague-Dawley, rat, in vivo, sc, 0.3 mg/kg, 6 days) was -37 s and the “CPP score” value (Male Sprague-Dawley rats [1]; male, Sprague-Dawley, rat, in vivo, sc, 1 mg/kg, 6 days) was -45 s. For the same molecule, the “CPP score” value (Male Sprague-Dawley rats [1]; male, Sprague-Dawley, rat, in vivo, sc, 3 mg/kg, 6 days) was -64 s and the “Potential to induce psychological dependence (motivational effect, in words)” value (Male Sprague-Dawley rats [1]; rat, in vivo) was “no potential to induce psychological dependence”.
